Measurements published in patent US8895568B2, “Compositions comprising substituted pteridines as agrochemicals” (Dow AgroSciences LLC, priority 2009, dated 2014).
Read-outs that look alike come from different tables or passages of the source.

Key:
Format in all cases: in vivo
[1] = system: Pseudoperonospora cubensis; test: Cucumber Downy Mildew (PSPECU), foliar spray, percent disease control; details: read-out: PSPECU percent control
Protocol: The activity of the compounds as effective fungicides was determined by applying the compounds to plants and observing control of fungal disease. The compounds were formulated at 200 ppm in 10 vol. % acetone plus 90 vol. % Triton X water (deionized water 99.99 wt %+0.01 wt % Triton X100), giving a “formulated test compound.” In a few cases, compounds were formulated at 75 or 8.3 ppm rather than 200 ppm in 10 vol. % acetone plus 90 vol. % Triton X water (deionized water 99.99 wt. %+0.01 wt. % Triton X100), giving a “formulated test compound.” Formulated test compounds were applied to plants using a turn table sprayer fitted with two opposing air atomization nozzles which delivered approximately 1500 L/ha of spray volume. All plants were inoculated with spores of the fungus the day after treatment, then incubated in an environment conducive to disease development. Disease severity was evaluated 4 to 15 days later, depending on the disease and the speed of disease development. The following experiments were performed in the laboratory to determine the fungicidal efficacy of the compounds of the invention. Cucumber Downy Mildew (causal agent Pseudoperonospora cubensis; Bayer code […]): Cucumber plants (variety Bush Champion) were grown from seed in a soil-less peat-based potting mixture (Metromix) until the first true leaf was 20-80% expanded. Each pot contained 1 seedling. These plants were sprayed until wet with the formulated test compound. On the following day, the leaves were inoculated with an aqueous suspension of downy mildew sporangia and the plants were kept in high humidity for one day to permit sporangia to germinate and infect the leaf. The plants were then incubated in a growth chamber until disease developed on untreated control plants. […] The effectiveness of the test compounds at controlling disease when sprayed on leaves was determined by assessing the severity of disease on treated plants, then converting the severity to percent control based on the level of disease on untreated, inoculated plants. Data are the level (in percent) at which the given disease was controlled when the given compound was applied to the foliage of the plants at 200 ppm. In a few cases (noted in the table) the compound was applied to the plants at 75 ppm or 8.3 ppm.

[2] = system: Colletotricum lagenarium; test: Cucumber Anthracnose (COLLLA), foliar spray, percent disease control
Protocol: The activity of the compounds as effective fungicides was determined by applying the compounds to plants and observing control of fungal disease. The compounds were formulated at 200 ppm in 10 vol. % acetone plus 90 vol. % Triton X water (deionized water 99.99 wt %+0.01 wt % Triton X100), giving a “formulated test compound.” In a few cases, compounds were formulated at 75 or 8.3 ppm rather than 200 ppm in 10 vol. % acetone plus 90 vol. % Triton X water (deionized water 99.99 wt. %+0.01 wt. % Triton X100), giving a “formulated test compound.” Formulated test compounds were applied to plants using a turn table sprayer fitted with two opposing air atomization nozzles which delivered approximately 1500 L/ha of spray volume. All plants were inoculated with spores of the fungus the day after treatment, then incubated in an environment conducive to disease development. Disease severity was evaluated 4 to 15 days later, depending on the disease and the speed of disease development. The following experiments were performed in the laboratory to determine the fungicidal efficacy of the compounds of the invention. Cucumber Anthracnose (causal agent Colletotricum lagenarium; Bayer code COLLLA): Cucumber plants (variety Bush Champion) were grown from seed in a soil-less peat-based potting mixture (Metromix) until the first true leaf was 20-80% expanded. Each pot contained 1 seedling. These plants were sprayed until wet with the formulated test compound. On the following day, the leaves were inoculated with an aqueous spore suspension of Colletotricum lagenarium and the plants were kept in high humidity for one day to permit spores to germinate and infect the leaf. The plants were then transferred to a growth chamber until disease developed on untreated control plants. […] The effectiveness of the test compounds at controlling disease when sprayed on leaves was determined by assessing the severity of disease on treated plants, then converting the severity to percent control based on the level of disease on untreated, inoculated plants. Data are the level (in percent) at which the given disease was controlled when the given compound was applied to the foliage of the plants at 200 ppm. In a few cases (noted in the table) the compound was applied to the plants at 75 ppm or 8.3 ppm.

[3] = system: Cochliobolus sativus; test: Spot Blotch of Wheat (COCHSA), foliar spray, percent disease control; details: Bipolaris sorokiniana, read-out: COCHSA percent control

Row | Compound | pest or weed control at 200 µg/mL ([1]; foliar) [%] | pest or weed control at 200 µg/mL ([2]; foliar) [%] | pest or weed control at 200 µg/mL ([3]; foliar) [%] | pest or weed control at 200 µg/mL ([1]; foliar spray) [%] | pest or weed control at 200 µg/mL ([2]; foliar spray) [%] | pest or weed control at 200 µg/mL ([3]; foliar spray) [%]
1 | N#Cc1c(Cl)cncc1Oc1ccc(CCNc2ncnc3nccnc23)cc1 [Compound 35] | 80 to 100 | 0 to 49 | 0 to 49 | – | – | –
2 | FC(F)(F)c1ccc(Oc2cccc(OCCNc3ncnc4nccnc34)c2)nc1 [Compound 87] | 80 to 100 | 0 to 49 | 0 to 49 | – | – | –
3 | c1cc(-c2nnc(Oc3ccc(CCNc4ncnc5nccnc45)cc3)s2)ccn1 [Compound 23] | 0 to 49 | 0 to 49 | 0 to 49 | – | – | –
4 | N#Cc1c(Cl)cncc1Oc1ccc(CCNc2ncnc3ncc(Cl)nc23)cc1 [Compound 119] | 0 to 49 | 0 to 49 | 0 to 49 | – | – | –
5 | COc1cc(C(F)(F)F)cc(Oc2ccc(OCCNc3ncnc4nccnc34)cc2)n1 [Compound 168] | 0 to 49 | 0 to 49 | 0 to 49 | – | – | –
6 | CCOC(=O)c1ccnc(Oc2ccc(CCNc3ncnc4nccnc34)cc2)c1 [Compound 183] | 80 to 100 | 0 to 49 | 0 to 49 | – | – | –
7 | Cc1cc(CCNc2ncnc3nccnc23)ccc1O [Compound 174] | 0 to 49 | 0 to 49 | 0 to 49 | – | – | –
8 | COc1cc(C(F)(F)F)cc(Oc2cc(C)c(CCNc3ncnc4nccnc34)cc2C)n1 [Compound 179] | 0 to 49 | 0 to 49 | 0 to 49 | – | – | –
9 | CCOc1cc(CCNc2ncnc3nccnc23)ccc1Oc1cc(C(C)(F)F)ccn1 [Compound 189] | 80 to 100 | 50 to 79 | 0 to 49 | – | – | –
10 | COc1cc(CCNc2ncnc3nccnc23)cc(OC)c1Oc1cc(C(F)(F)F)ccn1 [Compound 186] | 80 to 100 | 0 to 49 | 0 to 49 | – | – | –
11 | COc1cc(C(F)(F)F)cc(Oc2ccc(CCNc3ncnc4nccnc34)cc2C)n1 [Compound 167] | 80 to 100 | 0 to 49 | 0 to 49 | – | – | –
12 | CC(F)(F)c1cc[n+]([O-])c(Oc2ccc(CCNc3ncnc4nccnc34)cc2)c1 [Compound 184, (2-{4-[4-(1,1-difluoroethyl)-1-oxy-pyridin-2-yloxy]-phenyl}-ethyl)-pteridin-4-yl-amine] | 80 to 100 | 50 to 79 | 0 to 49 | – | – | –
13 | COc1ccc(C(C)Nc2nc(C)nc3nccnc23)cc1 (stereo not drawn) [Compound 19, [1-(4-Methoxyphenyl)ethyl]-2-methylpteridin-4-yl-amine] | 0 to 49 | 0 to 49 | 0 to 49 | – | – | –
14 | Fc1cccc(Oc2ccc(OCCNc3ncnc4nccnc34)cc2)n1 [Compound 159] | 80 to 100 | 0 to 49 | 0 to 49 | – | – | –
15 | Cc1nc(NCCc2ccc(O)cc2)c2nc(C)c(C)nc2n1 [Compound 209] | – | – | – | 0 to 49 | 0 to 49 | 0 to 49
16 | O=Cc1cc(C(F)(F)F)ccc1Oc1ccc(CCNc2ncnc3nccnc23)cc1 [Compound 100] | 80 to 100 | 0 to 49 | 0 to 49 | – | – | –
17 | Fc1cnc(C(F)(F)F)c(F)c1Oc1cccc(CCNc2ncnc3nccnc23)c1 [Compound 71] | 0 to 49 | 0 to 49 | 0 to 49 | – | – | –
